According to the supplement of paper PMC8967900:

What was measured:
Assay in all cases: selective drug sensitivity score (sDSS, relative to normal bone marrow) (sDSS (score)); higher = more potent and effective on the cell line relative to normal bone marrow cells
Details in all cases: 72 h
LC4-1 = tested on: LC4-1
MOLT-4 = tested on: MOLT-4
PEER = tested on: PEER
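Note: ALL cell lines in 384-well plates, five doses spanning 10,000-fold, each plate scaled between vehicle and 100 µmol/L benzalkonium chloride controls, sDSS an adapted area-under-curve metric.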

Row | SMILES | selective drug sensitivity score (LC4-1) | selective drug sensitivity score (MOLT-4) | selective drug sensitivity score (PEER)
1 | CNC(=O)c1cc(Oc2ccc(NC(=O)Nc3ccc(Cl)c(C(F)(F)F)c3)cc2)ccn1 [Sorafenib] (top concentration 1000 nM) | 0 | 0 | 0.1
2 | CC(C)c1cc(-c2n[nH]c(=O)n2-c2ccc3c(ccn3C)c2)c(O)cc1O [Ganetespib] (top concentration 1000 nM) | 1.44 | 3.14 | -1.86
3 | Cc1cc(C(C)Nc2ccccc2)c2nc(N3CCOCC3)cc(=O)n2c1 (centres undefined) [TGX-221] (top concentration 10000 nM) | -1.64 | 0.66 | -0.74
4 | CNc1nc(-c2ccc3c(N)n[nH]c3c2)cc(N2C[C@@H](C(=O)NC3CCCCC3)CC[C@H]2C)n1 (top concentration 10000 nM) | 0.76 | -0.14 | -0.14
5 | NCC(=O)Nc1ccc(-n2nc(C(F)(F)F)cc2-c2ccc3c(ccc4ccccc43)c2)cc1 (top concentration 25000 nM) | 2.7 | 14.7 | 9.9
6 | Cc1nc(-c2cn3c(n2)-c2ccc(-c4cnn(C(C)(C)C(N)=O)c4)cc2OCC3)n(C(C)C)n1 [Taselisib] (top concentration 1000 nM) | -2.2 | 3 | -4.3
7 | Cc1nc(Nc2ncc(C(=O)Nc3c(C)cccc3Cl)s2)cc(N2CCN(CCO)CC2)n1 [Dasatinib] (top concentration 1000 nM) | -2.8 | 1.9 | 17.2
8 | N#CCNC(=O)c1ccc(-c2ccnc(Nc3ccc(N4CCOCC4)cc3)n2)cc1 [Momelotinib] (top concentration 10000 nM) | -4.62 | -4.72 | 1.08
9 | C[C@@H](Oc1ccc2[nH]nc(/C=C/c3cnn(CCO)c3)c2c1)c1c(Cl)cncc1Cl (top concentration 1000 nM) | 1.36 | -0.54 | 5.46
10 | Cc1ncc(-c2ccnc(Nc3ccc(S(C)(=O)=O)cc3)n2)n1C(C)C [AZD-5438] (top concentration 10000 nM) | 0.44 | -5.46 | 3.04
11 | CN1CCN(c2nc(C3=C(c4c[nH]c5ccccc45)C(=O)NC3=O)c3ccccc3n2)CC1 [Sotrastaurin] (top concentration 10000 nM) | 1.7 | -1.7 | 4
12 | O=C(Nc1cccc(Nc2ncc(Br)c(NCCc3cnc[nH]3)n2)c1)N1CCCC1 [BX-912] (top concentration 10000 nM) | 12.3 | 6.56 | 10.6
13 | CC(C)c1c(C(=O)Nc2ccccc2)c(-c2ccccc2)c(-c2ccc(F)cc2)n1CC[C@@H](O)C[C@@H](O)CC(=O)O [Atorvastatin] (top concentration 10000 nM) | 4.9 | -2.1 | 2
14 | COc1cccc(OCCCN)c1-c1cc(Nc2cnc(C#N)cn2)n[nH]1 [Prexasertib] (top concentration 10000 nM) | 19.6 | 20.4 | 17.9
15 | CCn1c(C(=O)N(C2CC2)C2CC2)cc2c3c(ncn3C)c(Nc3cc(C)n(C)n3)nc21 (top concentration 10000 nM) | -4.36 | -3.36 | -4.36
16 | CC(C)c1cc(C(=O)N2Cc3ccc(CN4CCN(C)CC4)cc3C2)c(O)cc1O [Onalespib] (top concentration 2500 nM) | 3.22 | 5.92 | 0.52
17 | Cc1noc2c1-c1ccccc1C(c1ccc(Cl)cc1)=N[C@H]2CC(N)=O [CPI-0610] (top concentration 10000 nM) | 3.6 | -2.6 | -1.9
18 | Nc1ncnc2c1nc(Cl)n2[C@@H]1O[C@H](CO)[C@@H](O)[C@H]1O [8-chloro-adenosine] (top concentration 50000 nM) | 2.9 | 3.3 | 0.5
19 | C/C=C1\NC(=O)[C@H]2CSSCC/C=C/[C@H](CC(=O)N[C@H](C(C)C)C(=O)N2)OC(=O)[C@H](C(C)C)NC1=O [Romidepsin] (top concentration 1000 nM) | 1.76 | 1.76 | 2.06
20 | Cc1cc2c(C(C)C)c(O)c(O)c(C=O)c2c(O)c1-c1c(C)cc2c(C(C)C)c(O)c(O)c(C=O)c2c1O [AT-101] (top concentration 100000 nM) | 9.28 | 1.98 | 4.18
21 | C=C1C[C@@H]2[C@H](CC[C@]3(C)C(=O)CC[C@@H]23)[C@@]2(C)C=CC(=O)C=C12 [Exemestane] (top concentration 10000 nM) | 3.6 | -1.9 | -1.5
22 | O=C(Nc1ccncc1)C(=O)c1cn(Cc2ccc(Cl)cc2)c2ccccc12 [Indibulin] (top concentration 10000 nM) | 17.3 | 9.64 | 11.7

Row | SMILES | selective drug sensitivity score (LC4-1) | selective drug sensitivity score (MOLT-4) | selective drug sensitivity score (PEER)
23 | Nc1nc(Cl)nc2c1ncn2[C@@H]1O[C@H](CO)[C@@H](O)[C@@H]1F [Clofarabine] (top concentration 10000 nM) | 9.2 | 3.7 | -5.9
24 | CCN(CC)Cc1ccc2cc(COC(=O)Nc3ccc(C(=O)NO)cc3)ccc2c1 [Givinostat] (top concentration 1000 nM) | 5.5 | 2.1 | 6.1
25 | CS(=O)(=O)c1ccc(C(=O)Nc2ccc(Cl)c(-c3ccccn3)c2)c(Cl)c1 [Vismodegib] (top concentration 10000 nM) | 5.26 | -0.44 | -0.94
26 | CC(C)(C)c1cnc(CSc2cnc(NC(=O)C3CCNCC3)s2)o1 [SNS-032] (top concentration 10000 nM) | -3.24 | -4.84 | -4.94
27 | Cc1ccc(C(=O)Nc2cccc(C(F)(F)F)c2)cc1Nc1nc(-c2cccnc2)nc2c1cnn2C [NVP-BHG712] (top concentration 10000 nM) | 3.38 | 3.08 | 8.18
28 | C=C(c1ccc(C(=O)O)cc1)c1cc2c(cc1C)C(C)(C)CCC2(C)C [Bexarotene] (top concentration 10000 nM) | 0.2 | 2.2 | -3.8
29 | O=C(Nc1cc(Oc2cc(F)c(NC(=O)C3(C(=O)Nc4ccc(F)cc4)CC3)cc2F)ccn1)C1CC1 [Altiratinib] (top concentration 10000 nM) | -0.36 | 0.24 | 9.24
30 | CNCc1ccc(-c2[nH]c3cc(F)cc4c3c2CCNC4=O)cc1 [Rucaparib] (top concentration 10000 nM) | 0.32 | -0.58 | -0.08
31 | CNC(=O)c1nn(C)c2c1C(C)(C)Cc1cnc(Nc3ccc(N4CCN(C)CC4)cc3)nc1-2 [Milciclib] (top concentration 10000 nM) | 5.94 | 3.84 | 5.84
32 | CCc1nc(C(N)=O)c(Nc2ccc(N3CCC(N4CCN(C)CC4)CC3)c(OC)c2)nc1NC1CCOCC1 [Gilteritinib] (top concentration 1000 nM) | 0.38 | -2.52 | -2.22
33 | Cn1ncc(Cl)c1-c1cc(C(=O)N[C@H](CN)Cc2cccc(F)c2)sc1Cl [Afuresertib] (top concentration 1000 nM) | 0.86 | 6.26 | -1.34
34 | COc1ccc(S(=O)(=O)Nc2cccnc2Nc2ccc(O)cc2)cc1 [ABT-751] (top concentration 10000 nM) | 11.7 | 11.1 | 15.5
35 | Cn1cncc1[C@@](N)(c1ccc(Cl)cc1)c1ccc2c(c1)c(-c1cccc(Cl)c1)cc(=O)n2C [Tipifarnib] (top concentration 10000 nM) | 1.6 | 6.8 | 10
36 | COc1cc(N2CCC(N3CCN(C)CC3)CC2)ccc1Nc1ncc(Cl)c(Nc2ccccc2P(C)(C)=O)n1 [Brigatinib] (top concentration 1000 nM) | -0.94 | 0.36 | -3.34
37 | CC1(C)CC[C@]2(NC(=O)C(C)(F)F)CC[C@]3(C)[C@H](C(=O)C=C4[C@@]5(C)C=C(C#N)C(=O)C(C)(C)[C@@H]5CC[C@]43C)[C@@H]2C1 [Omaveloxolone] (top concentration 10000 nM) | 7.38 | 2.18 | 4.38
38 | COc1ccc(Cn2ccc3ccc(C(=O)NO)cc32)cc1 (top concentration 10000 nM) | 4.54 | 1.44 | 2.24
39 | CC(=O)Nc1cccc(-n2c(=O)n(C3CC3)c(=O)c3c(Nc4ccc(I)cc4F)n(C)c(=O)c(C)c32)c1 [Trametinib] (top concentration 250 nM) | 2.46 | -4.54 | -4.44
40 | COC[C@H](NC(=O)c1cnc(C)s1)C(=O)N[C@@H](COC)C(=O)N[C@@H](Cc1ccccc1)C(=O)[C@@]1(C)CO1 [Oprozomib] (top concentration 2500 nM) | 3.7 | 12.6 | 12.5
41 | N[C@@H]1CCCN(c2c(/C=C3\SC(=O)NC3=O)cccc2-c2ccccc2)C1 [AZD1208] (top concentration 10000 nM) | -3.8 | -4.4 | -2.7
42 | Cc1ccc(C(=O)Nc2ccc(Oc3cc4cnn(C)c4cc3-c3cn[nH]c3)c(F)c2)c(=O)n1-c1ccc(F)cc1 [Merestinib] (top concentration 1000 nM) | -0.62 | -0.62 | -0.22
43 | CCN1CCN(Cc2ccc(Nc3ncc(F)c(-c4cc(F)c5nc(C)n(C(C)C)c5c4)n3)nc2)CC1 [Abemaciclib] (top concentration 2500 nM) | 2.94 | -1.96 | -1.96
